Test results from ChEMBL document CHEMBL1201862, “PubChem BioAssay data set” (2004).
Blank lines part the entries; values can stand above or below the molecule they belong to. Activity calls are given as the source filed them.

Experiments:
H9c2 = test: cells; format: functional, cell-based; conditions: Rattus norvegicus, H9c2, Myocardium;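 note: confirmatory concentration-response retest of ultra-high-throughput screening hits for modulation of myocardial damage; cell death induced by hydrogen peroxide oxidative stress; compound pretreatment for 60 min then peroxide exposure for 2 h; potency is for protecting the cells against peroxide damage rather than for killing them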
Melanocortin receptor 4 = Melanocortin receptor 4 (Homo sapiens, UniProt P32245); format: functional, cell-based;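 note: Cell-based assay with luminescence read-out, confirmatory dose-response testing for agonist activity of biased ligands at MC4R; human U2OS cells with tagged receptor and beta-arrestin; potency of agonists that increase receptor coupling to beta-arrestin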
cells [1] = format: functional, cell-based
[2] = molecular target: T1, Sentrin-specific protease 8 (Homo sapiens, UniProt Q96LD8); test: SENP8 protease inhibitors, SAR follow-up, biochemical, luminescence, set 2 (AID 588601); format: functional
T1 sequence (Q96LD8 whole entry): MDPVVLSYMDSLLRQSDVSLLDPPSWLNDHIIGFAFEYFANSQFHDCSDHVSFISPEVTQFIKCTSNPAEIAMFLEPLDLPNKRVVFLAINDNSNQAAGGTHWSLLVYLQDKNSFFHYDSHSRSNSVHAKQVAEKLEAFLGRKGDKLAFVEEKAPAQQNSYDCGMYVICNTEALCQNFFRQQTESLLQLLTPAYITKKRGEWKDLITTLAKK

[3] = molecular target: T2, Sentrin-specific protease 7 (Homo sapiens, UniProt Q9BQF6); test: SENP7 protease inhibitors, SAR follow-up, biochemical, luminescence, set 2 (AID 588600); format: functional
T2 sequence (Q9BQF6 whole entry): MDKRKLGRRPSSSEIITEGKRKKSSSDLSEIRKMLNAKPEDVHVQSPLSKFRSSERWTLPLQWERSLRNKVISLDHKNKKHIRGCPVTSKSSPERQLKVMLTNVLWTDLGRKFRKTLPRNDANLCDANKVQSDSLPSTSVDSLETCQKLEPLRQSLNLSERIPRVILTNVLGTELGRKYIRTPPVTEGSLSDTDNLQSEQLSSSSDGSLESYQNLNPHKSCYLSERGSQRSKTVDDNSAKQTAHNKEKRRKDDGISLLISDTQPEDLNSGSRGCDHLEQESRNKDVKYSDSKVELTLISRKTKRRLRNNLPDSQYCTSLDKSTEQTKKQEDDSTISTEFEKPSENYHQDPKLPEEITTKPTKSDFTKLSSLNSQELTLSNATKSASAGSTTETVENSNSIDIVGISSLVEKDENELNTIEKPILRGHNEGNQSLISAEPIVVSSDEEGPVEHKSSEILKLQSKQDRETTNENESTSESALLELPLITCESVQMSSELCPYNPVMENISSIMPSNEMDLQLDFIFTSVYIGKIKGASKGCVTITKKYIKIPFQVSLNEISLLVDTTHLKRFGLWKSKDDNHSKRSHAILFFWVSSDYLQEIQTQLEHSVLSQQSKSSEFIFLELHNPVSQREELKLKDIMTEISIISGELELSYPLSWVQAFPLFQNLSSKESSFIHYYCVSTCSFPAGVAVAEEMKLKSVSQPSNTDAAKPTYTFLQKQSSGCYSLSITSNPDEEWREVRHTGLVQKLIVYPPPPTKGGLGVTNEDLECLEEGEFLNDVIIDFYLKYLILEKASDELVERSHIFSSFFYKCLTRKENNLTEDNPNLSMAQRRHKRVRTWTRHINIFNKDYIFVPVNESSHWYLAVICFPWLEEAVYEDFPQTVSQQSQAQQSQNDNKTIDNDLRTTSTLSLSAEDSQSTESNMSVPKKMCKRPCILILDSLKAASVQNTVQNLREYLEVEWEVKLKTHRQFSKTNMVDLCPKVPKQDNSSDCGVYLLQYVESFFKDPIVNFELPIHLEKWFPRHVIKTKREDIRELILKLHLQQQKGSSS

cells [4] = format: functional, cell-based; remark: listed apart in the source
[5] = molecular target: T3, Sentrin-specific protease 6 (Homo sapiens, UniProt Q9GZR1); test: SENP6 protease inhibitors, SAR follow-up, biochemical, luminescence, set 2 (AID 588598); format: functional
T3 sequence (Q9GZR1 whole entry): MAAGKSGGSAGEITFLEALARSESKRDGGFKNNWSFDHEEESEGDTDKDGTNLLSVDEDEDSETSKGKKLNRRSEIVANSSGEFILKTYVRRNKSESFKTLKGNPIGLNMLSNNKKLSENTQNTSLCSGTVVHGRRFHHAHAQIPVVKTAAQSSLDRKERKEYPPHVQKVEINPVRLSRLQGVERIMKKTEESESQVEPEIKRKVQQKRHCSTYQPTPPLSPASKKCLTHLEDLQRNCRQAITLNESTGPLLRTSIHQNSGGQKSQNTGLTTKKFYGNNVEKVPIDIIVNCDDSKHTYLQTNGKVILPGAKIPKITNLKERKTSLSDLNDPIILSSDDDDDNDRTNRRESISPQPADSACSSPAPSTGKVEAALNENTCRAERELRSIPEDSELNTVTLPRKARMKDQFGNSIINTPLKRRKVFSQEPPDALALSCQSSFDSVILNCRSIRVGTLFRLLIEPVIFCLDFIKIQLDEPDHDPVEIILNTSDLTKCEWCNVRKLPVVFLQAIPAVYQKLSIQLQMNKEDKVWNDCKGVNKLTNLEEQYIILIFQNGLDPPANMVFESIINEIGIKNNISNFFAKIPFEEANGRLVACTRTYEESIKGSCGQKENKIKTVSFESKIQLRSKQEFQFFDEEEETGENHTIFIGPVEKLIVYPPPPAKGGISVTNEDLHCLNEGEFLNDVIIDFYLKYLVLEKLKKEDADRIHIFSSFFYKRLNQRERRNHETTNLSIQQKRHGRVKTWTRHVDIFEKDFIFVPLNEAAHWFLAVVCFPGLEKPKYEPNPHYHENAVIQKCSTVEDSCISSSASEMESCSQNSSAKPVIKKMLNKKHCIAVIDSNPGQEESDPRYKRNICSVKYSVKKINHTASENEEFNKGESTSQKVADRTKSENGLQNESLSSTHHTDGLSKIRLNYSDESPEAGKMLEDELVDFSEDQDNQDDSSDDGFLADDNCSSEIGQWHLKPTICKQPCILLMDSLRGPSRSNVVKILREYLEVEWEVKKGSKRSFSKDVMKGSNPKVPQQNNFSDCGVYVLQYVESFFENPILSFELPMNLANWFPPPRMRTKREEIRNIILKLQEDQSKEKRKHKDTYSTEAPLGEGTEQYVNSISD

Caspase-3 [6] = molecular target: T4, Caspase-3 (Homo sapiens, UniProt P42574); test: caspase-3 inhibitors as off-family protease, SAR follow-up, selectivity assay for SENP protease inhibitor project, biochemical, luminescence, set 2 (AID 588599); format: functional
T4 sequence (P42574 whole entry): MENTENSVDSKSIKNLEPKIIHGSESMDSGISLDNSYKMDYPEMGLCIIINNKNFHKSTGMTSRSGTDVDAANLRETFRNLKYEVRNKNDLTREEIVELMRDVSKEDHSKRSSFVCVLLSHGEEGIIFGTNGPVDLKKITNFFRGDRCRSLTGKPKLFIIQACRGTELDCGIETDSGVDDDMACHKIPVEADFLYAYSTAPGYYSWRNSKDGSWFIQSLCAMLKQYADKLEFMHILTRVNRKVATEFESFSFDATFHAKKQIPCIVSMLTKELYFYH

Caspase-3 [7] = molecular target: T4, Caspase-3; format: functional
[8] = molecular target: T3, Sentrin-specific protease 6; format: functional
[9] = molecular target: T1, Sentrin-specific protease 8; format: functional
[10] = molecular target: T5, Serine/threonine-protein phosphatase (Candida dubliniensis (strain CD36 / CBS 7987 / NCPF 3949 / NRRLY-17841) (Yeast), UniProt B9W6M3); test: calcineurin pathway inhibitors in yeast reporter, dose response, S. cerevisiae, CDRE-lacZ, luminescence, secondary (AID 2388); format: functional, cell-based;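 note: yeast reporter cells carrying a calcineurin-responsive lacZ construct stimulated with calcium chloride; luminescent beta-galactosidase reporter signal in whole cells rather than isolated phosphatase activity; potency for inhibition where a drop in reporter signal means calcineurin blockade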
T5 sequence (B9W6M3 whole entry): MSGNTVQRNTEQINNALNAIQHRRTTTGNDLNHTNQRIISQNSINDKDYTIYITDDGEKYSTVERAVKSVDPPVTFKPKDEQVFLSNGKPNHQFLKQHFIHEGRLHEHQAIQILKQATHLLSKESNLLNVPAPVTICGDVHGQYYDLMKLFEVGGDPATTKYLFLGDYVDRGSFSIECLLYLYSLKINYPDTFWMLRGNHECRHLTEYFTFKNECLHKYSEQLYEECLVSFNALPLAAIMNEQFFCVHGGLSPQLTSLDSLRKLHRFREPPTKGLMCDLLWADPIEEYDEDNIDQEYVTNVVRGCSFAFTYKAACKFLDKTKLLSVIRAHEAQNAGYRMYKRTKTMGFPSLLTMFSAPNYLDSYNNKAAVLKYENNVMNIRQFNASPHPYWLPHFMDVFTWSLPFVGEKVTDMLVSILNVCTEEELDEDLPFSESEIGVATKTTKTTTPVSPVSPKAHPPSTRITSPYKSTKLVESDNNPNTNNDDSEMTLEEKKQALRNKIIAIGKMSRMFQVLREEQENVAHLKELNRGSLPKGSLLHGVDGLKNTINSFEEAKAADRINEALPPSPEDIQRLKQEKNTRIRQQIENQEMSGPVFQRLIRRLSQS

[11] = molecular target: T6, Corticotropin-releasing factor receptor 2/Corticotropin-releasing factor-binding protein (Homo sapiens, UniProt P24387+Q13324); test: Dose Response confirmation of uHTS hits for small molecule antagonists of the CRF-binding protein and CRF-R2 receptor complex.; format: functional; conditions: read-out: IC50_Mean
T6 sequence (Q13324 whole entry): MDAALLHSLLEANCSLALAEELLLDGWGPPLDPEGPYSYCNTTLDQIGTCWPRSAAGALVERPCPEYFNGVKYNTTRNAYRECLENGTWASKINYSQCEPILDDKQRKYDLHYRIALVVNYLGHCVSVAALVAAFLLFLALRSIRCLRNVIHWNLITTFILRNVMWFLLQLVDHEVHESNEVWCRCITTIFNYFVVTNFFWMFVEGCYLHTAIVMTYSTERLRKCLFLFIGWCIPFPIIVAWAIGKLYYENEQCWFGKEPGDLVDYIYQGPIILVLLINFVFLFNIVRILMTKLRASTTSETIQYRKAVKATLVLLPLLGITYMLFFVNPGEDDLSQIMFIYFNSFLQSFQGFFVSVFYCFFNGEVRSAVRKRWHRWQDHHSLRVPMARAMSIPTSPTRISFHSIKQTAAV
T6 sequence (P24387 whole entry): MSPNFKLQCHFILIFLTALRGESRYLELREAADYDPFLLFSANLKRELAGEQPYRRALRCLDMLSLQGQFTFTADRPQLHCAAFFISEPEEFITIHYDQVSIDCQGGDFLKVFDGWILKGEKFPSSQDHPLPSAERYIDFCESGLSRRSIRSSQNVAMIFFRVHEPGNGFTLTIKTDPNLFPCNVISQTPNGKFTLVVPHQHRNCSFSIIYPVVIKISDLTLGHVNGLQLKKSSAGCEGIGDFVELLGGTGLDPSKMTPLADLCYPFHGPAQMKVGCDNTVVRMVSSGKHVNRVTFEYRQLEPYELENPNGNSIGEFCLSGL

[12] = C. albicans growth with fluconazole, confirmation, fluorescence, retest (AID 2467); format: functional, cell-based
[13] = molecular target: ATP-dependent molecular chaperone HSP82 (Candida albicans (strain WO-1) (Yeast), UniProt C4YTQ8); test: loss of DOC-induced GRE-beta-galactosidase reporter signal, dose response, Hsp90 inhibitor project, S. cerevisiae, luminescence (AID 2400); format: functional, cell-based;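 note: beta-galactosidase luminescence from glucocorticoid response element reporter as proxy for Hsp90 function; inhibitor potency where signal loss means Hsp90 inhibition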
[14] = molecular target: T6, Corticotropin-releasing factor receptor 2/Corticotropin-releasing factor-binding protein; test: activators of CRF receptor 2 with binding protein – uHTS hits, confirmation (AID 602473); format: functional; conditions: read-out: EC50_Mean
[15] = NIH-3T3 fibroblast cytotoxicity, dose response, cytotoxicity control, cell-based, fluorescence, Alamar Blue, secondary assay (AID 2327); format: functional;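 note: NIH-3T3 mouse fibroblasts cultured with fluconazole at 8 µg/mL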
[16] = molecular target: Peroxisome proliferator-activated receptor gamma/Nuclear receptor coactivator 2 (Homo sapiens, UniProt P37231); test: TR-FRET dose response biochemical High Throughput Screening assay for agonists of the steroid receptor coactivator 2 (SRC-2) recruitment by the peroxisome proliferator-activated receptor gamma (PPAR gamma): non-selective agonists. [Related pubchem assays: 1297, 1032 ]; format: functional
Protein Wnt-3a = Protein Wnt-3a (Mus musculus, UniProt P27467); test: Wnt3a-driven reporter signaling inhibition, dose response, selectivity assay for Gli-SUFU antagonist project, Wnt-LIGHT cells, luminescence (AID 651570); format: functional; conditions: read-out: IC50_Mean;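 note: Wnt-LIGHT reporter cells stimulated with conditioned medium from Wnt3a-producing cells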
[17] = molecular target: Peroxisome proliferator-activated receptor gamma/Nuclear receptor coactivator 1 (Homo sapiens, UniProt P37231); test: TR-FRET dose response biochemical High Throughput Screening assay for agonists of the steroid receptor coactivator 1 (SRC-1) recruitment by the peroxisome proliferator-activated receptor gamma (PPAR gamma): non-selective agonists. [Related pubchem assays (depositor defined):AID1300, AID1808, AID504735, AID631]; format: protein assay
[18] = molecular target: Peroxisome proliferator-activated receptor gamma/Nuclear receptor coactivator 3 (Homo sapiens, UniProt P37231); test: TR-FRET dose response biochemical High Throughput Screening assay for agonists of the steroid receptor coactivator 3 (SRC-3) recruitment by the peroxisome proliferator-activated receptor gamma (PPAR gamma): non-selective agonists. [Related pubchem assays: 1301 (Confirmation screen.), 1048 (Primary screen.)]; format: functional
Peroxisome proliferator-activated receptor gamma/Nuclear receptor coactivator 3, sequence (P37231 whole entry): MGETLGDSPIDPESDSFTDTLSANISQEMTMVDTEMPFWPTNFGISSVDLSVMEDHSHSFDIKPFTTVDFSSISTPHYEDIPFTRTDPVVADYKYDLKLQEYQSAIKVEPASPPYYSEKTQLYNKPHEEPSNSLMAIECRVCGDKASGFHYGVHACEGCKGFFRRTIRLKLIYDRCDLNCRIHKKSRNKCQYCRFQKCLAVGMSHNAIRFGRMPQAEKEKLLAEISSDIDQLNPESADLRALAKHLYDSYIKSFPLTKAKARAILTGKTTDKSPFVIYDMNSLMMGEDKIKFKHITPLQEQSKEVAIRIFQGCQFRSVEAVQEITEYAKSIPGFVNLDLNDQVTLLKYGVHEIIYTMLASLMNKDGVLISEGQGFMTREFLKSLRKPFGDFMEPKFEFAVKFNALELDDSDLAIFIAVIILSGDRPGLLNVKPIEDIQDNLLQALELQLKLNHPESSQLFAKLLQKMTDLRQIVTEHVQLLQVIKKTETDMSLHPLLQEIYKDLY
Peroxisome proliferator-activated receptor gamma/Nuclear receptor coactivator 3, sequence (Q9Y6Q9 whole entry, further chain): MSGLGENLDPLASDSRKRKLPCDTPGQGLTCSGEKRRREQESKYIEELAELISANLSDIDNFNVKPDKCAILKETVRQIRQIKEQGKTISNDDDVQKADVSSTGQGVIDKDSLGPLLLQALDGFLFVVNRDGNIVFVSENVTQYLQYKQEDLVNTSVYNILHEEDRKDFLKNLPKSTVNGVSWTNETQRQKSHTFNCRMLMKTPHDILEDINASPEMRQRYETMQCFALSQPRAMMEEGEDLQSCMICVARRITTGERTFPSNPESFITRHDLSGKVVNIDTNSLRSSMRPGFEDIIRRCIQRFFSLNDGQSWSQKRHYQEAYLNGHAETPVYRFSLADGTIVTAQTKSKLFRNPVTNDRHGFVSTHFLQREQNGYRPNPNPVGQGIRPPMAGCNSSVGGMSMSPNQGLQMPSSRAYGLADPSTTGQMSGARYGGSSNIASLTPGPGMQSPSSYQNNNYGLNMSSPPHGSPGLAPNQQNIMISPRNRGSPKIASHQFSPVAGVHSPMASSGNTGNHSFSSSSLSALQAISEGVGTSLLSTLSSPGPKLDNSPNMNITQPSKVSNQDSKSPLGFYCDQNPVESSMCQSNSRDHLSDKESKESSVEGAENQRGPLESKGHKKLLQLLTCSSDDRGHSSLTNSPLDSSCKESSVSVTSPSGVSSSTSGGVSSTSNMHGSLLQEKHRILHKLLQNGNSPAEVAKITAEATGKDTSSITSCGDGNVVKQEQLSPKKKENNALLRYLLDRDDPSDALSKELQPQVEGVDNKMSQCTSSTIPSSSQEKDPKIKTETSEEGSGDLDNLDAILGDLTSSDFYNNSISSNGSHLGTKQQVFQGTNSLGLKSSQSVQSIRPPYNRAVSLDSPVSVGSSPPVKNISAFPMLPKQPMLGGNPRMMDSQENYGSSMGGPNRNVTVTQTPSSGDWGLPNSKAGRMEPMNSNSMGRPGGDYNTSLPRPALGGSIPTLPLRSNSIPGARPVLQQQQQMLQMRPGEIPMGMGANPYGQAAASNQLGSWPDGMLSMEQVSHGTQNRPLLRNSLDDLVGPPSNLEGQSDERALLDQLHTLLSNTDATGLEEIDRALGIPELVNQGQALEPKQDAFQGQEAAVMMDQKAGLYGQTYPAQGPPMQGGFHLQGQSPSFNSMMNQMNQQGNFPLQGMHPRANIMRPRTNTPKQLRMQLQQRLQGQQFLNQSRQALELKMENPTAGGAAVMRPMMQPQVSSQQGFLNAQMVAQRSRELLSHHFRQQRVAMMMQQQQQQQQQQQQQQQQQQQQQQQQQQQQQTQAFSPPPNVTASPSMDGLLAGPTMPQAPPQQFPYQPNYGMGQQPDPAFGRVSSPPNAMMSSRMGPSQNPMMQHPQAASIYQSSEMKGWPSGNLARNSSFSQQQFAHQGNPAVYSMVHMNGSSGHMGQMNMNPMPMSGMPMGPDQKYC

ATP-dependent molecular chaperone HSP82, sequence (C4YTQ8 whole entry): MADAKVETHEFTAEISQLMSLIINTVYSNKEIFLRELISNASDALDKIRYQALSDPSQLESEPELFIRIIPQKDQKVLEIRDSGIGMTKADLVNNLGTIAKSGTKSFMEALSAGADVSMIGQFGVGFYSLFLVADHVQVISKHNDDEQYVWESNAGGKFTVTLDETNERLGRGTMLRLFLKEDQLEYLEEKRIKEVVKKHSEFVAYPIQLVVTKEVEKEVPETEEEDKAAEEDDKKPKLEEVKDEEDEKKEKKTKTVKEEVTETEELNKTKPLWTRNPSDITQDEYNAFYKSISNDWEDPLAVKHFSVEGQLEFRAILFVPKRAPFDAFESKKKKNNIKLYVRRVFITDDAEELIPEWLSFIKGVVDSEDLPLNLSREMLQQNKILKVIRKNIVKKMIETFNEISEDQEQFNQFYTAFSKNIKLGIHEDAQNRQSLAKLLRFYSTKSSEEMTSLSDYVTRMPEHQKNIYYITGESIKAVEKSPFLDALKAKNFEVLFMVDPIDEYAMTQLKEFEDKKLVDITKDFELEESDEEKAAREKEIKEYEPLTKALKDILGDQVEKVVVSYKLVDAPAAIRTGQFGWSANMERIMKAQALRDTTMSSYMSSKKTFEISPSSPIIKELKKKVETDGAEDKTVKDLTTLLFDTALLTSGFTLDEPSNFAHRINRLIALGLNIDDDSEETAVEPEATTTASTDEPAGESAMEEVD
Melanocortin receptor 4, sequence (P32245 whole entry): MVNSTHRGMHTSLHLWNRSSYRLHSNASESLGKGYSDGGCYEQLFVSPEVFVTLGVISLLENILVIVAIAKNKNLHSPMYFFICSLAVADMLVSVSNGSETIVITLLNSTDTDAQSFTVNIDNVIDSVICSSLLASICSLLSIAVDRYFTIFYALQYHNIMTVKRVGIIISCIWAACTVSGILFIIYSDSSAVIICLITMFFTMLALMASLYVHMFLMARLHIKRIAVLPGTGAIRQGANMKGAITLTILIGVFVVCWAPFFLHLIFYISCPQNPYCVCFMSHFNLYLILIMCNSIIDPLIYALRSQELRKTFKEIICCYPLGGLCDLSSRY
Protein Wnt-3a, sequence (P27467 whole entry): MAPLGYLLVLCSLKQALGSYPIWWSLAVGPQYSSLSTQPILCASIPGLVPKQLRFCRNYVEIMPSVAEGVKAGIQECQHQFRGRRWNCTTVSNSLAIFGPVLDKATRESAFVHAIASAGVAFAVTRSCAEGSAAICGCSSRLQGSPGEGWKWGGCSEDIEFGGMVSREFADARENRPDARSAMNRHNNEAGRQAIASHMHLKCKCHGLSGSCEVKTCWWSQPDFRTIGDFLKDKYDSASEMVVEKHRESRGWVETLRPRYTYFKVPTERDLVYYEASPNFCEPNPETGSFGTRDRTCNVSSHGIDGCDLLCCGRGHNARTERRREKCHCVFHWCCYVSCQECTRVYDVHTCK

Structure (SMILES): COc1cccc(-c2cnc3c(NC=O)cc(-c4ccc(O)c(OC)c4)cn23)c1
IC50 (H9c2): > 79 µM (inactive)
EC50 (Melanocortin receptor 4): > 89.2 µM (inactive)

Structure (SMILES): CN(/N=C/c1c[nH]c2ccccc12)c1cnn(-c2ccc(F)c(Cl)c2)c(=O)c1Cl
EC50 (cells [1]): > 350 µM (not active)
IC50 [2]: > 99 µM (inactive)
IC50 [3]: > 99 µM (inactive)
EC50 (cells [4]): 55.6 µM (active)
IC50 [5]: > 99 µM (inactive)
IC50 (Caspase-3 [6]): > 99 µM (inactive)

Structure (SMILES): Cc1nn(-c2ccccc2)c(Cl)c1/C=C/C(=O)c1ccc(O)cc1
EC50 [10]: > 180 µM (inactive)
IC50 [11]: > 47.1 µM (inactive)
EC50 [12]: 1.1 µM (active)
EC50 [13]: 18.9 µM (active)
EC50 [14]: > 53 µM (inactive)
EC50 [15]: > 150 µM (inactive)

Continued, in another order:

IC50 (Caspase-3 [7]): 27.9 µM (active)
IC50 [8]: 62.8 µM (active)
Structure (SMILES): COC(=O)c1sccc1NC(=O)CCC1CCCCC1
IC50 [9]: > 100 µM (inactive)

EC50 [16]: 13.8 µM (not active)
IC50 (Protein Wnt-3a): 17 µM (active)
EC50 [17]: 13.2 µM (inactive)
EC50 [18]: 53.8 µM (not active)
Structure (SMILES): CCOC(=O)CSc1c(-c2cccs2)[nH]c2ccccc12

IC50 (Caspase-3 [7]): 21.3 µM (active)
IC50 [8]: 17.2 µM (active)
Structure (SMILES): CCCCc1ccc(Nc2ncccc2C#N)cc1
IC50 [9]: 33.1 µM (active)
